Data set [1] deals with T1, Disintegrin and metalloproteinase domain-containing protein 17 (Homo sapiens, UniProt P78536). Nature of the data set: Inhibition of TACE in human PBMC assessed as reduction in LPS-induced TNFalpha production incubated overnight by HTRF assay. Format: cell-based. (Time-resolved FRET reads energy transfer from a long-lived donor to a nearby acceptor.)
The nature of data set [2]: Aqueous solubility of the compound in PBS at pH 7.4 at 20 degC after 24 hrs by HPLC analysis. Format: physicochemical.
The nature of data set [3]: Stability of the compound in propylene glycol/ethanol96 at 0.1 mg/ml measured up to 3 months by HPLC analysis. Format: physicochemical. The conditions noted are these: read-out: Stability.
Data set [4] in a line: Intrinsic clearance in human hepatocytes assessed per million cells at 1 uM by LC-MS/MS analysis. The conditions noted are these: human hepatocytes, read-out: CLH. Type of data set: ADME, cell-based, Hepatocyte.
Data set [5] is described as follows: Half life in human neonatal keratinocytes at 1 uM by LC-MS/MS analysis. Type of data set: ADME, cell-based.
The subject of data set [6] is TK6. Put plainly: Genotoxicity in p53-competent human TK6 cells in presence of Sprague-Dawley rat S9 fraction by GADD45alpha GFP reporter assay. Type of data set: toxicity, cell-based. For orientation: In a reporter assay the amount or activity of a reporter protein is the signal.
Data set [7] concerns TK6. Nature of the data set: Genotoxicity in p53-competent human TK6 cells in absence of Sprague-Dawley rat S9 fraction by GADD45alpha GFP reporter assay. Format: toxicity, cell-based.
Data set [8] addresses T1, Disintegrin and metalloproteinase domain-containing protein 17. Nature of the data set: Inhibition of TACE in NHEK assessed as reduction in LPS/TPA-stimulated TNFalpha production preincubated for 1 hr followed by LPS/TPA stimulation for 24 hrs by HTRF assay.
For data set [9] the target is unchanged. Put plainly: Inhibition of recombinant human TACE catalytic domain using Mca-Pro-Leu-Ala-Gln-Ala-Val-Dpa-Arg-Ser-Ser-Ser-Arg-NH2 as substrate after 2 hrs by fluorescence assay.
Data set [10] concerns the target T2, Disintegrin and metalloproteinase domain-containing protein 9 (Homo sapiens, UniProt Q13443).
T2 sequence (Q13443 whole entry): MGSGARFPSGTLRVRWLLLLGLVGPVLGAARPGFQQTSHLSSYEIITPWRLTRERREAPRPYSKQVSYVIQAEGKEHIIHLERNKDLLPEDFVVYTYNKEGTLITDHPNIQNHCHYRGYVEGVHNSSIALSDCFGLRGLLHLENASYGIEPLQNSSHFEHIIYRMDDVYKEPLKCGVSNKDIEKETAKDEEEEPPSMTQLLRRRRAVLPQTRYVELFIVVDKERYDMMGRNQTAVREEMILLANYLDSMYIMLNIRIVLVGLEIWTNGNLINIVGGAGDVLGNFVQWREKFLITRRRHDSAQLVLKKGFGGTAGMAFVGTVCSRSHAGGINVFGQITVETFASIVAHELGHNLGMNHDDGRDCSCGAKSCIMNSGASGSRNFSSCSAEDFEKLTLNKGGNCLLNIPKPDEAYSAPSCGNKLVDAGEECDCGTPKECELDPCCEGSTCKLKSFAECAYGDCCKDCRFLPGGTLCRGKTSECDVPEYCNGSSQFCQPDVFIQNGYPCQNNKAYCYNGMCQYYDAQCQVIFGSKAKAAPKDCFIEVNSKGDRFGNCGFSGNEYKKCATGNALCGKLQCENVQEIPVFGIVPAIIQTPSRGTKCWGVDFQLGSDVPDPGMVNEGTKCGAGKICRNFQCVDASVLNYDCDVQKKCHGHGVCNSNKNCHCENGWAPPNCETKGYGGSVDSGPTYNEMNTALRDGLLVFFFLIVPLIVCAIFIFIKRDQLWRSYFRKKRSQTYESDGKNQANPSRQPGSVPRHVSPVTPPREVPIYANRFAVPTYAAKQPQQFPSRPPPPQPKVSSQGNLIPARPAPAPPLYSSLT
Put plainly: Inhibition of ADAM9 (unknown origin).

Data set [11] deals with 72 kDa type IV collagenase (Homo sapiens, UniProt P08253). Nature of the data set: Inhibition of MMP2 (unknown origin).
For a further data set, the target named is Stromelysin-1 (Homo sapiens, UniProt P08254). Nature of the data set: Inhibition of MMP3 (unknown origin).
The next data set addresses T3, Matrilysin (Homo sapiens, UniProt P09237).
T3 sequence (P09237 whole entry): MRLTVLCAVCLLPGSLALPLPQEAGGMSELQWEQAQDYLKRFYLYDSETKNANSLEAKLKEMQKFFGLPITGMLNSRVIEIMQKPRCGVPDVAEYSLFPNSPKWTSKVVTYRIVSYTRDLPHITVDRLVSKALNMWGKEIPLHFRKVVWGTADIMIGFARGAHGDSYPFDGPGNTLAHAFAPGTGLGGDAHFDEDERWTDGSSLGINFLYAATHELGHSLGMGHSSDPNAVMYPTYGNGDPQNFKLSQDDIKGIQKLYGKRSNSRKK
Put plainly: Inhibition of MMP7 (unknown origin).

For data set [12], the target named is Matrix metalloproteinase-9 (Homo sapiens, UniProt P14780). Put plainly: Inhibition of MMP9 (unknown origin).
Data set [13] addresses Macrophage metalloelastase (Homo sapiens, UniProt P39900). Put plainly: Inhibition of MMP12 (unknown origin).
Data set [14] has as its target Matrix metalloproteinase-14 (Homo sapiens, UniProt P50281). Nature of the data set: Inhibition of MMP14 (unknown origin).
Data set [15] can be described thus: Fraction unbound in human plasma at 5 uM after 4 hrs by LC-MS/MS analysis. Type of data set: ADME, cell-free.
The test system of data set [16] is Salmonella typhimurium. Nature of the data set: Mutagenicity in Salmonella typhimurium TA98 in presence of rat S9 fraction by Ames test. Format: toxicity, organism-based. The conditions noted are these: salmonella enterica subsp. enterica serovar typhimurium.
Data set [17] deals with Salmonella typhimurium. Put plainly: Mutagenicity in Salmonella typhimurium TA98 in absence of rat S9 fraction by Ames test. Type of data set: toxicity, organism-based. The settings on record: salmonella enterica subsp. enterica serovar typhimurium. (In general: The Ames test detects mutagens through reverse mutation in bacteria.)
The subject of data set [18] is Salmonella typhimurium. Nature of the data set: Mutagenicity in Salmonella typhimurium TA100 in presence of rat S9 fraction by Ames test. Type of data set: toxicity, organism-based. The conditions noted are these: salmonella enterica subsp. enterica serovar typhimurium.
Data set [19] deals with Salmonella typhimurium. Put plainly: Mutagenicity in Salmonella typhimurium TA100 in absence of rat S9 fraction by Ames test. Format: toxicity, organism-based. The settings on record: salmonella enterica subsp. enterica serovar typhimurium.
In data set [20] the test system is TK6. Nature of the data set: Genotoxicity in human TK6 cells in presence of rat S9 fraction by Giemsa staining based micronucleus assay. Format: toxicity, cell-based.
Data set [21] has as its system TK6. Nature of the data set: Genotoxicity in human TK6 cells in absence of rat S9 fraction by Giemsa staining based micronucleus assay. Type of data set: toxicity, cell-based.
The target in data set [22] is Voltage-gated inwardly rectifying potassium channel KCNH2 (Homo sapiens, UniProt Q12809). Put plainly: Inhibition of human ERG expressed in CHO-K1 cells assessed as reduction in tail current amplitude by patch clamp assay. Format: cell-based.

SMILES strings stand for the structures. Values after ≈ are worked out from the molar mass of the structure shown.

T1 sequence (P78536 whole entry, the tested form may be a part): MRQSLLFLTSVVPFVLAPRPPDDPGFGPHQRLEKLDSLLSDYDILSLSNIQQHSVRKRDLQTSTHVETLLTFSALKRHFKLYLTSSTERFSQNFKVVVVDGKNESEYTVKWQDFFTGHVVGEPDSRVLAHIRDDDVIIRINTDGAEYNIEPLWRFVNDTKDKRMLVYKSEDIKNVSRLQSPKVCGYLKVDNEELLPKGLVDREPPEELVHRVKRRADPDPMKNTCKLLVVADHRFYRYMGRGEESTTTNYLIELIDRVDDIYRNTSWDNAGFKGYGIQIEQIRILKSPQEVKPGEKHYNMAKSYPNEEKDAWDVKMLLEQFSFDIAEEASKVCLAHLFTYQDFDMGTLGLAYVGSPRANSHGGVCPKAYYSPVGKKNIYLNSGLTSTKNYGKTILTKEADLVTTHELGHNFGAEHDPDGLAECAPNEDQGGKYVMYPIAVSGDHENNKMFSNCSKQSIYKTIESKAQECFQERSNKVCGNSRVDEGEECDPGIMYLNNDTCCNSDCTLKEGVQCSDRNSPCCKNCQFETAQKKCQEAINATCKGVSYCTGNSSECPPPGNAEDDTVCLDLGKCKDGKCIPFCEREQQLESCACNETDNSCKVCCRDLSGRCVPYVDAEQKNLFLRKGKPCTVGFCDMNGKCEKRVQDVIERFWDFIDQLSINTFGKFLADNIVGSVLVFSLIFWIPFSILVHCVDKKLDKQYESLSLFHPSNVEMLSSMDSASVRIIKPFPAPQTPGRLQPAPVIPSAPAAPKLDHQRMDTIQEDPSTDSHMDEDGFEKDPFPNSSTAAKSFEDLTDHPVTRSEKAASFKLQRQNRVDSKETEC
Sequence of Stromelysin-1 (P08254 whole entry): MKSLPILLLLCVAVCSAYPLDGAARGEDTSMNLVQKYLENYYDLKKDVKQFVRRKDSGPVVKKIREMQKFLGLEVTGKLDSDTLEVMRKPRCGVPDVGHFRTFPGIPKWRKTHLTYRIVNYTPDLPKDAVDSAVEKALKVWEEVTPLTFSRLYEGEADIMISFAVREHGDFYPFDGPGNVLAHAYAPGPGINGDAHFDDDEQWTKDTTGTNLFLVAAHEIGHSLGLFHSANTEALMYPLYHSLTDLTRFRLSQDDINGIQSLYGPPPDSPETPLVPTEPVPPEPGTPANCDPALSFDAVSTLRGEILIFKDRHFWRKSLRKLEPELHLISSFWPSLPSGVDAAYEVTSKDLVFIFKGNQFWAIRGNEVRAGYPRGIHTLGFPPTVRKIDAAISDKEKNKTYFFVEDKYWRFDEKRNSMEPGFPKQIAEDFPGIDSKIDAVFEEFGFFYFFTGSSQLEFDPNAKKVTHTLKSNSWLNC
Sequence of Voltage-gated inwardly rectifying potassium channel KCNH2 (Q12809 whole entry): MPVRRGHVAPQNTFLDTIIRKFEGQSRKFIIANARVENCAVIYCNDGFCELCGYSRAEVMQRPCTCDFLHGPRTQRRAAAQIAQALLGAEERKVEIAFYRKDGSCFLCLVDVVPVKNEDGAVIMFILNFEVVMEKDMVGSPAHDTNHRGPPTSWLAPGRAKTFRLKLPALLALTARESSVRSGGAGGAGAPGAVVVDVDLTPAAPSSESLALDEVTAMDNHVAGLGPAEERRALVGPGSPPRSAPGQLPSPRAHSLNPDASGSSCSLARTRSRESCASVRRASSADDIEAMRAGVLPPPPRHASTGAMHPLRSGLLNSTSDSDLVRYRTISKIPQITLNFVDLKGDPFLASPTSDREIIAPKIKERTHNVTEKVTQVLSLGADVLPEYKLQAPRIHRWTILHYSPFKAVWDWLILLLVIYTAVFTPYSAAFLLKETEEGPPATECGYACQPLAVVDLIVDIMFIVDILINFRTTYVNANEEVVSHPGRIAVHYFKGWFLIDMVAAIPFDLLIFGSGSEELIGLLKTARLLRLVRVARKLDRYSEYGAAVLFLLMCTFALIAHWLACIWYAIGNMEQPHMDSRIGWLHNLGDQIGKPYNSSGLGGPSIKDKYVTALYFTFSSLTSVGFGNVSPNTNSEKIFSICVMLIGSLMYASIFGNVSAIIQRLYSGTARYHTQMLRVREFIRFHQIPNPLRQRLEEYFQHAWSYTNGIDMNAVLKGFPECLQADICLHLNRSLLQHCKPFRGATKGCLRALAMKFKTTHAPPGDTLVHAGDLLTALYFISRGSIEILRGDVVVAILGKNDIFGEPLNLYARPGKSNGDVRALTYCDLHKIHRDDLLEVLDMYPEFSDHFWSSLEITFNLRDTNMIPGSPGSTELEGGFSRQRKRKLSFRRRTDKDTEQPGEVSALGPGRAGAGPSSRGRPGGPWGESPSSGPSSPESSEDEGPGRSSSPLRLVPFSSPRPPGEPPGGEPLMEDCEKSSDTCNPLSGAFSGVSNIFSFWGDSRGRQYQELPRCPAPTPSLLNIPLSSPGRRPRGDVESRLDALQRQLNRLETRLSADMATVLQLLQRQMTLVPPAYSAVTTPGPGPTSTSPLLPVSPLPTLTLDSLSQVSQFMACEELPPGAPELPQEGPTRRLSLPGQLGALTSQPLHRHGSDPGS
Sequence of Matrix metalloproteinase-9 (P14780 whole entry): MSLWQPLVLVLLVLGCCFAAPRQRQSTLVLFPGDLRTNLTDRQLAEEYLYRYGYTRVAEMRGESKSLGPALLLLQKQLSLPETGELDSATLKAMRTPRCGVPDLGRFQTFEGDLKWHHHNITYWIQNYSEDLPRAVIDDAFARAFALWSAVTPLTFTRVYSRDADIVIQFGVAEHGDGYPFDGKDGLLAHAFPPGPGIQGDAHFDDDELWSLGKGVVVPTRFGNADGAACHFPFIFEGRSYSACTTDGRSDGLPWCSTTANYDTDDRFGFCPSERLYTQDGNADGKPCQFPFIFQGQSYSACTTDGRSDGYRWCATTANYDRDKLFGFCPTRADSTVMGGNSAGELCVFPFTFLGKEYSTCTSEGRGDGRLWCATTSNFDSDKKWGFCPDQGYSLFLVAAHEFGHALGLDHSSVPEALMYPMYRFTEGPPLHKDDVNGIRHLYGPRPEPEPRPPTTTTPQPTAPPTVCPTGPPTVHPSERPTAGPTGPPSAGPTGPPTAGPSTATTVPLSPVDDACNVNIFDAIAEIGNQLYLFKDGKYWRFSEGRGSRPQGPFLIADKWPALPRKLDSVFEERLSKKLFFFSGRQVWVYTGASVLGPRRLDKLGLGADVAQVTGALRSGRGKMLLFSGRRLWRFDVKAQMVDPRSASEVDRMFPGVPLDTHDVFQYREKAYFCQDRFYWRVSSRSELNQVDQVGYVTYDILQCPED
Sequence of Macrophage metalloelastase (P39900 whole entry): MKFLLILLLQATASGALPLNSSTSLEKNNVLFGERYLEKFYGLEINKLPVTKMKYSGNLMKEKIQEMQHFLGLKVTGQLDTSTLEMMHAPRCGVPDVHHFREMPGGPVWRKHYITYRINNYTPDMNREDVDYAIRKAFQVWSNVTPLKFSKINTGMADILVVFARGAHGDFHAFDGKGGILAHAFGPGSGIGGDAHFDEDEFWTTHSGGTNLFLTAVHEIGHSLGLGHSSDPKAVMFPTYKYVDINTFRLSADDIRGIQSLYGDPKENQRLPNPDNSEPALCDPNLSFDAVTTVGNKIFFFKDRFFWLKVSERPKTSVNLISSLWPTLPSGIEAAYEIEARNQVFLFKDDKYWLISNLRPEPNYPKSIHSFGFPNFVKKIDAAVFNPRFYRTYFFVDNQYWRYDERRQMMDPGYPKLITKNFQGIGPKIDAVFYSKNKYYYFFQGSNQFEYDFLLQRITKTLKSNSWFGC
Sequence of 72 kDa type IV collagenase (P08253 whole entry): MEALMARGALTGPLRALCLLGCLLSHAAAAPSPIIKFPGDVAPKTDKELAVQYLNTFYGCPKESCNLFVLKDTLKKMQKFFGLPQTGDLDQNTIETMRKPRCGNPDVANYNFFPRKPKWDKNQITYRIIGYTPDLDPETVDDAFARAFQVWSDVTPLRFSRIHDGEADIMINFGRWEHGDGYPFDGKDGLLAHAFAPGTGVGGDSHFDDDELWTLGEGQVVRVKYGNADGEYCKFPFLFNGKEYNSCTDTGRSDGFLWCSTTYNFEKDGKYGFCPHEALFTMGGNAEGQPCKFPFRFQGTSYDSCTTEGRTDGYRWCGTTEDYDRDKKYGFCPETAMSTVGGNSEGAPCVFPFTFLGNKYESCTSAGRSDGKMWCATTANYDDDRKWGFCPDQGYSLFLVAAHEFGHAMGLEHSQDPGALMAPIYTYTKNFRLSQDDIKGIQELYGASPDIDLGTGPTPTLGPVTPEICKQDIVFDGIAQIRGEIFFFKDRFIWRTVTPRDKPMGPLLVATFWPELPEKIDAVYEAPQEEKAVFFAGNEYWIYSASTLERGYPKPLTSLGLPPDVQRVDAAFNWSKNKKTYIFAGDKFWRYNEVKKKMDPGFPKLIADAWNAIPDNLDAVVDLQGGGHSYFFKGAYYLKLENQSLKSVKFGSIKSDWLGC

The IC50 is the point on the concentration scale where inhibition reaches its midpoint. By solubility is commonly meant the dissolved amount per volume that the medium holds. A low value points to a poorly soluble substance. Broadly, the half-life is how long it takes for the measured level to halve. A word on the fraction unbound: it is the share of the substance not bound to proteins or other matrix. High values mean weak binding, low ones extensive binding. In the case of `Cc1cc(COc2ccc(S(=O)(=O)N(C)C3(C(=O)NO)CN(C(=O)C(C)C)C3)cc2)c2ccccc2n1`, the half-maximal inhibitory concentration (IC50) in data set [1] stood at 9 nM; in [8], 3 nM; in data set [9], 4 nM; in [10], 90 nM; in [11], 890 nM; against Stromelysin-1 it was 90 nM. In addition, the concentration for half-maximal inhibition (IC50) at Matrilysin is 180 nM; in [12], 2100 nM; in data set [13], 13 nM; in [14] it was 6500 nM; in data set [22], over 100000 nM. The compound further had a solubility at 24 h in data set [2] of 84 µM (≈ 44.2 µg/mL). In data set [3], the remaining at 0.1 mg/ml was determined as 99%. Moreover, the hepatocyte CLint at 1 µM in [4] is 8 µL/min/1e6 cells. Also, the half-life at 1 µM in data set [5] is over 24 h. Also, the Activity entry in the data set with TK6 [6], with TK6 [7], with Salmonella typhimurium [16], in the data set on Salmonella typhimurium [17], in the data set on Salmonella typhimurium [18] and in the data set with Salmonella typhimurium [19] was “Non-Toxic” throughout. Also, the Activity result with TK6 [20] and with TK6 [21] was “Non-Toxic” each time. The fraction unbound at 4 h, 5 µM in data set [15] worked out at 0.019.
Consider `Cc1cc(COc2ccc(S(=O)(=O)N(C)C3(C(=O)NO)CN(C(=O)CC(C)C)C3)cc2)c2ccccc2n1`, for which the 50% inhibitory concentration (IC50) in data set [1] is 33 nM; in data set [8], 20 nM; in [9], 7 nM; in data set [10], 480 nM; in data set [11], 1000 nM; on Stromelysin-1, 90 nM. In addition, the concentration for half-maximal inhibition (IC50) was 210 nM on Matrilysin; 2200 nM in data set [12]; 6 nM in data set [13]; 4400 nM in data set [14]; over 100000 nM in data set [22]. The solubility at 24 h in [2] is 62 µM (≈ 33.5 µg/mL). Also, in data set [3], the remaining at 0.1 mg/ml amounted to 99%. Also, in [4], the hepatocyte CLint at 1 µM is 14 µL/min/1e6 cells. Also, the half-life at 1 µM in data set [5] was over 24 h. The Activity entry in the data set on TK6 [6], with TK6 [7], with Salmonella typhimurium [16], with Salmonella typhimurium [17], in the data set on Salmonella typhimurium [18] and in the data set on Salmonella typhimurium [19] was “Non-Toxic” in each case. The Activity result with TK6 [20] and with TK6 [21] was “Non-Toxic” in each case. The compound also had a fraction unbound at 4 h, 5 µM in [15] of 0.003.

These data come from ChEMBL document CHEMBL4184149, “Discovery and process development of a novel TACE inhibitor for the topical treatment of psoriasis” (Bioorg Med Chem, 2018).
